Results published in patent EP0729956B1, “Benzothiophene compounds, intermediates, compositions, and methods” (ELI LILLY AND COMPANY, priority 1995, dated 1996).
Where a name gives a salt, the structure may show the parent alone. Read-outs that look alike come from different tables or passages of the source.

Key:
ovariectomized rats [1] = tested on: ovariectomized rats; design: species or system Sprague Dawley rats; details: rat, in vivo; for Uterine EPO (V. max): po
Excerpt: (§1) Seventy-five day old female Sprague Dawley rats (weight range of 200 to 225g) were obtained from Charles River Laboratories (Portage, MI). The animals were either bilaterally ovariectomized (OVX) or exposed to a Sham surgical procedure at Charles River Laboratories, and then shipped after one week. Upon arrival, they were housed in metal hanging cages in groups of 3 or 4 per cage and had ad libitum access to food (calcium content approximately 0.5%) and water for one week. Room temperature was maintained at 22.2° ± 1.7° C with a minimum relative humidity of 40%. The photoperiod in the room was 12 hours light and 12 hours dark.
(§2) After a one week acclimation period (therefore, two weeks post-OVX) daily dosing with test compound was initiated. 17a-ethynyl estradiol or the test compound were given orally, unless otherwise stated, as a suspension in 1% carboxymethylcellulose or dissolved in 20% cyclodextrin. Animals were dosed daily for 4 days. Following the dosing regimen, animals were weighed and anesthetized with a ketamine: Xylazine (2:1, V:V) mixture and a blood sample was collected by cardiac puncture. The animals were then sacrificed by asphyxiation with CO2, the uterus was removed through a midline incision, and a wet uterine weight was determined.
Uteri were kept at 4° C until time of enzymatic analysis. The uteri were then homogenized in 50 volumes of 50 mM Tris buffer (pH - 8.0) containing 0.005% Triton X-100. Upon addition of 0.01% hydrogen peroxide and 10 mM O-phenylenediamine (final concentrations) in Tris buffer, increase in absorbance was monitored for one minute at 450 nm. The presence of eosonophils in the uterus is an indication of estrogenic activity of a compound. The maximal velocity of a 15 second interval was determined over the initial, linear portion of the reaction curve.

ovariectomized rats [2] = assay: Serum cholesterol analysis (OVX rat, 4-day dosing); format: in vivo, Sprague Dawley rats
Excerpt: as §1, §2
Blood samples were allowed to clot at room temperature for 2 hours, and serum was obtained following centrifugation for 10 minutes at 3000 rpm. Serum cholesterol was determined using a Boehringer Mannheim Diagnostics high performance cholesterol assay. Briefly the cholesterol was oxidized to cholest-4-en-3-one and hydrogen peroxide. The hydrogen peroxide was then reacted with phenol and 4-aminophenazone in the presence of peroxidase to produce a p-quinone imine dye, which was read spectrophotemetrically at 500 nm. Cholesterol concentration was then calculated against a standard curve. The entire assay was automated using a Biomek Automated Workstation.

[3] = tested on: ovariectomized test animals; assay: Osteoporosis Test Procedure (OVX rat, 35-day dosing, distal femur metaphysis X-ray image analysis); format: in vivo, Sprague Dawley rats; details: OVX rats, daily for 35 days; for Distal Femur Metaphysis (X-ray Image Analysis-Gray Score): mean ± SEM
Excerpt: as §1
Following the General Preparation Procedure, infra, the rats were treated daily for 35 days (6 rats per treatment group) and sacrificed by carbon dioxide asphyxiation on the 36th day. The 35 day time period was sufficient to allow maximal reduction in bone density, measured as described herein. At the time of sacrifice, the uteri were removed, dissected free of extraneous tissue, and the fluid contents were expelled before determination of wet weight in order to confirm estrogen deficiency associated with complete ovariectomy. […] The uteri were then placed in 10% neutral buffered formalin to allow for subsequent histological analysis.
The right femurs were excised and digitilized x-rays generated and analyzed by an image analysis program (NIH image) at the distal metaphysis. The proximal aspect of the tibiae from these animals were also scanned by quantitative computed tomography.
In accordance with the above procedures, compounds of the present invention and ethynyl estradiol (EE2) in 20% hydroxypropyl b-cyclodextrin were orally administered to test animals. Distal femur metaphysis data presented in Tables 2 and 3 below are the results of formula I compound treatments compared to intact and ovariectomized test animals. Results are reported as the mean ± the standard error of the mean.

[4] = Rattus norvegicus, po, 96 h, daily for 4 days, read-out: Serum Cholesterol (% decrease vs. OVX)
[5] = Table 3, oral, dose 0.1 mg/kg, OVX control 6.2 ± 1.4, Sham 31.1 ± 6.3

| Compound | Uterine EPO (V. max) (ovariectomized rats [1]; 0.01 mg/kg) | Uterine EPO (V. max) (ovariectomized rats [1]; 0.1 mg/kg) | Uterine EPO (V. max) (ovariectomized rats [1]; 1 mg/kg) | inhibition in vivo at 0.01 mg/kg (ovariectomized rats [2]; [4]) [%] | inhibition in vivo at 0.1 mg/kg (ovariectomized rats [2]; [4]) [%] | inhibition in vivo at 1 mg/kg (ovariectomized rats [2]; [4]) [%] | also measured |
| --- | --- | --- | --- | --- | --- | --- | --- |
| Oc1ccc(-c2sc3cc(O)ccc3c2Oc2ccc(OCCN3CCOCC3)cc2)cc1 [Example 24, [6-Hydroxy-3-[4-[2-(morpholino)ethoxy]phenoxy]-2-(4-hydroxyphenyl)]benzo[b]thiophene hydrochloride] | 3.6 | 0.9 | 29.4 | 23.7 | 46.4 | 79.3 | Distal Femur Metaphysis (X-ray Image Analysis-Gray Score) [3, 5]: 18.3 ± 2.6∗; Distal Femur Metaphysis (X-ray Image Analysis-Gray Score) ([3]; Table 3, oral, dose 1.0 mg/kg, OVX control 6.2 ± 1.4, Sham 31.1 ± 6.3): 19.6 ± 2.3∗; Distal Femur Metaphysis (X-ray Image Analysis-Gray Score) ([3]; Table 3, oral, dose 3.0 mg/kg, OVX control 6.2 ± 1.4, Sham 31.1 ± 6.3): 17.1 ± 5.5 |
| Oc1ccc(-c2sc3cc(O)ccc3c2Oc2ccc(OCCN3CCCCC3)cc2)cc1 [Example 20, [6-hydroxy-3-[4-[2-(1-piperidinyl)ethoxy]-phenoxy]-2-(4-hydroxyphenyl)]benzo [b]thiophene hydrochloride] | 0.9 | 3.0 |  |  |  |  | Uterine EPO (V. max) (ovariectomized rats [1]; 0.05 mg/kg): 3.0; inhibition in vivo at 0.05 mg/kg (ovariectomized rats [2]; Rattus norvegicus, po, 96 h, daily for 4 days, dose 0.05 mg/kg, read-out: Serum Cholesterol (% decrease vs. OVX)): 35.9% |
| Oc1ccc(-c2sc3ccccc3c2Oc2ccc(OCCN3CCCCCC3)cc2)cc1 [Example 4, [3-[4-[2-(1-hexamethyleneimino)ethoxy]phenoxy]-2-(4-hydroxypbenyl)]benzo[b]thiophene] |  | 3.9 | 4.8 |  | 53.7 | 62.1 | Uterine EPO (V. max) (ovariectomized rats [1]; 10 mg/kg): 3.0; inhibition in vivo at 10 mg/kg (ovariectomized rats [2]; [4]): 65.3% |
| CCN(CC)CCOc1ccc(Oc2c(-c3ccc(O)cc3)sc3ccccc23)cc1 [Example 5, [3-[4-[2-(1-N,N-diethylamino)ethoxy]phenoxy]-2-(4-bydroxyphenyl)]benzo[b]thiophene] |  | 7.2 | 54.6 |  | 67.2 | 67.7 | Uterine EPO (V. max) (ovariectomized rats [1]; 10 mg/kg): 59.4; inhibition in vivo at 10 mg/kg (ovariectomized rats [2]; [4]): 60.2% |
| C#C[C@]1(O)CC[C@H]2[C@@H]3CCc4cc(O)ccc4[C@H]3CC[C@@]21C [EE2, 17a-ethynyl estradiol, reference compound] |  | 308.1 |  |  | 94.8 |  | eosinophil infiltration into the uterus (in words) (ovariectomized rats [1]): substantial, expected increase in eosinophil infiltration; serum cholesterol compared to the ovariectomized control animals (in words) (ovariectomized rats [2]; oral, 4 days, EE2 at 0.1 mg/kg/day): caused a decrease in serum cholesterol; bone loss / femur density after ovariectomy (in words) ([3]; oral): prevented this loss; Distal Femur Metaphysis (X-ray Image Analysis-Gray Score) ([3]; Table 2, oral in 20% hydroxypropyl b-cyclodextrin, dose 0.1 mg/kg, OVX control 8.1 ± 1.8, Sham 27.2 ± 6.0): 11.5 ± 2.9∗; Distal Femur Metaphysis (X-ray Image Analysis-Gray Score) [3, 5]: 17.8 ± 3.5 |
| CCN(CC)CCCOc1ccc(Oc2c(-c3ccc(O)cc3)sc3cc(O)ccc23)cc1 [Example 25, [6-Hydroxy-3-[4-[3-(1-N,N-diethylamino)propoxy]phenoxy]-2-(4-hydroxyphenyl)]benzo [b]thiophene hydrochloride] | 3.0 | 3.3 | 36.0 | 13.1 | 67.6 | 73.9 |  |
| c1ccc(-c2sc3ccccc3c2Oc2ccc(OCCN3CCCCC3)cc2)cc1 [Example 7, [3-[4-[2-(1-piperidinyl)ethoxy]phenoxy]-2-(phenyl)]benzo [b]thiophene hydrochloride] |  | 4.8 | 4.5 |  | 56.2 | 42.6 | Uterine EPO (V. max) (ovariectomized rats [1]; 5 mg/kg): 4.8; inhibition in vivo at 5 mg/kg (ovariectomized rats [2]; Rattus norvegicus, po, 96 h, daily for 4 days, dose 5.0 mg/kg, read-out: Serum Cholesterol (% decrease vs. OVX)): 29.5% |

Further lines, with some results ahead:

| Uterine EPO (V. max) (ovariectomized rats [1]; 0.01 mg/kg) | Uterine EPO (V. max) (ovariectomized rats [1]; 0.1 mg/kg) | Uterine EPO (V. max) (ovariectomized rats [1]; 1 mg/kg) | Compound | inhibition in vivo at 0.01 mg/kg (ovariectomized rats [2]; [4]) [%] | inhibition in vivo at 0.1 mg/kg (ovariectomized rats [2]; [4]) [%] | inhibition in vivo at 1 mg/kg (ovariectomized rats [2]; [4]) [%] | also measured |
| --- | --- | --- | --- | --- | --- | --- | --- |
| 3.3 | 4.8 | 52.5 | Oc1ccc(-c2sc3cc(O)ccc3c2Oc2ccc(OCCCN3CCCCC3)cc2)cc1 [Example 27, [6-Hydroxy-3-[4-[3-(piperidino)propoxy]phenoxy]-2-(4-hydroxyphenyl)]benzo[b]thiophene hydrochloride] | 12.2 | 50.8 | 76.5 |  |
| 3.6 | 88.5 | 94.5 | CCS(=O)(=O)Oc1ccc(-c2sc3cc(OS(=O)(=O)CC)ccc3c2Oc2ccc(OCCN3CCCCC3)cc2)cc1 [Example 44, [6-Ethylsulfonyloxy-3-[4-[2-(1-piperidinyl)ethoxy]-phenoxy]-2-(4-ethylsulfonyloxyphenyl)] benzo[b]thiophene hydrochloride] | 12.6 | 43.8 | 67.4 |  |
| 4.8 | 29.1 | 175.1 | CC(C)N(CCOc1ccc(Oc2c(-c3ccc(O)cc3)sc3cc(O)ccc23)cc1)C(C)C [Example 26, [6-Hydroxy-3-[4-[2-(1-N,N-diisopropylamino)-ethoxy]phenoxy]-2-(4-hydroxyphenyl)]benzo[b]thiophene hydrochloride] | 29 | 45.2 | 62.7 |  |
| 3.3 | 4.8 | 6.0 | O=C(Oc1ccc(-c2sc3cc(OC(=O)c4ccccc4)ccc3c2Oc2ccc(OCCN3CCCCC3)cc2)cc1)c1ccccc1 [Example 43, [6-Benzoyloxy-3-[4-[2-(1-piperidinyl)-ethoxy]phenoxy]-2-(4-benzoyloxyphenyl)]benzo[b]thiophene hydrochloride] | 9.2 | 43.8 | 39.4 |  |
